In paper PMC6792352, “Limited Chemical Structural Diversity Found to Modulate Thyroid Hormone Receptor in the Tox21 Chemical Library” (Environmental Health Perspectives, 2019):
Structures can show the parent of a compound that is named as a salt. Where two headings read alike, the source gives them in different places.

Columns and labels:
in vitro [1] = conditions: rat, gh3-tre-luc cells, AC50 (uM) modified / 1000
[2] = target: thyroid hormone receptor (endogenous TRα and TRβ); assay: GH3-TRE-Ag primary qHTS, luciferase reporter, agonist mode (TOX21_TR_LUC_GH3_Agonist, aeid 803); assay type: cell-based, rat
[3] = tested on: Tox21 cell viability assays (different cell types); assay: Global cytotoxicity: eighteen Tox21 cell viability assays; assay type: cell-based
GH3-TRE-Luc cell line [4] = tested on: GH3-TRE-Luc cell line
[5] = target: thyroid hormone receptor (endogenous TRα and TRβ); assay: GH3-TRE-Antag primary qHTS, luciferase reporter, antagonist mode with 1 nM T3 (TOX21_TR_LUC_GH3_Antagonist, aeid 804); assay type: cell-based, rat
in vitro [6] = conditions: rat
GH3-TRE-Luc cell line [7] = assay: GH3-TRE-Via cell viability, CellTiter-Fluor (TOX21_TR_LUC_GH3_Antagonist_viability, aeid 805)
[8] = tested on: thyroid hormone receptor (endogenous TRα and TRβ); assay: GH3-TRE-Ag-Followup confirmation (TOX21_TR_LUC_GH3_Agonist_Followup, aeid 2226); assay type: cell-based, rat
[9] = target: T1, TRα ligand-binding domain (Homo sapiens, UniProt P10827); assay: TRa-coa LanthaScreen TR-FRET coactivator (SRC-2 peptide) recruitment, agonist (TOX21_TRA_COA_Agonist_Followup_ratio, aeid 2230); assay type: biochemical
T1 construct: the receptor LBDs expressed as glutathione S-transferase (GST) fusion proteins; purchased

human RXRα = target: T2, human RXRα (Homo sapiens, UniProt P19793); assay: RXRa-bla-Ag mammalian one-hybrid beta-lactamase assay (TOX21_TR_RXR_BLA_Agonist_Followup_ratio, aeid 2253); assay type: cell-based
T2 construct: host or cells: GeneBLAzer UAS-bla HEK 293T
T2 sequence (P19793 227-458 limits assumed): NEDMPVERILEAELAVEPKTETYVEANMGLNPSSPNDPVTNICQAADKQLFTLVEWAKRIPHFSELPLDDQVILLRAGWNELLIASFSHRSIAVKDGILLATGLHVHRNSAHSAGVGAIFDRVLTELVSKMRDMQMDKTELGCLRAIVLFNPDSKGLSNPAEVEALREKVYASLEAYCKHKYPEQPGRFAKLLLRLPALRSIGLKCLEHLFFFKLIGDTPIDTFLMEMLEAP

[10] = tested on: thyroid hormone receptor (TR); assay: Classification of TR actives across characterization assays (TR-Ag / RXR-Ag; TR model binary); set-up: key to Categorization Code: FP, false positive; conditions: TR agonist characterization
Method in brief: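 GH3-TRE qHTS agonist, antagonist and viability modes over 8,305 compounds; 84 candidates rescreened in GH3-TRE-Ag, TRβ- and RXRα-UAS-bla HEK 293T one-hybrid assays, HEK293T viability, and TRα/TRβ coactivator recruitment. Actives classified binary after removing pharmaceuticals.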

[11] = target: T3, human TRβ ligand-binding domain (Homo sapiens, UniProt P10828); assay: TRb-bla agonist mammalian one-hybrid beta-lactamase assay (TOX21_TRB_BLA_Agonist_Followup_ratio, aeid 2236); assay type: cell-based; set-up: host or cells: GeneBLAzer UAS-bla HEK 293T
T3 sequence (P10828 217-461 limits assumed): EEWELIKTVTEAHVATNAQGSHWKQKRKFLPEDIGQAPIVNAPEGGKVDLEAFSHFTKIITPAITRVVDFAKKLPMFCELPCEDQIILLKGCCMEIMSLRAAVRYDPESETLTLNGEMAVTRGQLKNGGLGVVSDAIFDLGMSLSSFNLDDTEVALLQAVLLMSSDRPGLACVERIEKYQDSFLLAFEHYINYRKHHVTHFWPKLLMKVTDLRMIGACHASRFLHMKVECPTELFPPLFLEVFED

[12] = target: T3, human TRβ ligand-binding domain; assay: TRb-coa LanthaScreen TR-FRET coactivator (SRC-2 peptide) recruitment, agonist (TOX21_TRB_COA_Agonist_Followup_ratio, aeid 2244); assay type: biochemical; set-up: host or cells: GeneBLAzer UAS-bla HEK 293T
[13] = antagonist candidates, inactive samples arbitrarily set to AC50=1,000 μM, read-out: GH3-TRE-Ag AC50
[14] = antagonist mode, 1 nM T3, read-out: GH3-TRE-Antag AC50

T1 sequence (P10827 163-410 isoform P10827-2 limits assumed, other chains not shown): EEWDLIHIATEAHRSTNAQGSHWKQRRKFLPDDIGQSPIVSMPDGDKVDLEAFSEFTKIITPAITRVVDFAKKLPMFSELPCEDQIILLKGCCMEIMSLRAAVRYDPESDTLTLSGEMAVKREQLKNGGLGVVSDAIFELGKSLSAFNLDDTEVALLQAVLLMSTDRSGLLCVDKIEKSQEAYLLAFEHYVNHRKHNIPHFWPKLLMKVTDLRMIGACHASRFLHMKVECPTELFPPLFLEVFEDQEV

With `N=C1C=CC(=C(c2ccc(N)cc2)c2ccc(N)cc2)C=C1` [C.I. Basic Red 9 monohydrochloride] the CC50 at 24 h (in vitro [1]) was 8.8 µM, the AC50 [2, 13] was > 92 µM and the AC50 [3] was 24.2 µM. For the same compound, the “Active in global cytotoxicity assays (%)” value [3] was 66.7%, the AC50 (GH3-TRE-Luc cell line [4]) was 8.8 µM and the AC50 [5, 14] was 5.15 µM.

For `CC[C@]12CCCN3CCc4c(n(c5ccccc45)C(=O)C1)[C@@H]32` [(-)-Eburnamonine], the CC50 at 24 h (in vitro [1]) was 7.18 µM, the AC50 (GH3-TRE-Luc cell line [4]) was 7.18 µM and the “resp_max GH3-TRE-Via” value (GH3-TRE-Luc cell line [4]) was 66.2. The “resp_max GH3-TRE-Antag” value ([5]; Table S8) was 88.8 and the AC50 ([5]; Table S8, read-out: Average AC50 (uM) GH3-TRE-Antag) was 6.85 µM.

In the case of `CCOC(=O)C1=C(COCCN)NC(C)=C(C(=O)OC)C1c1ccccc1Cl` (centres unmarked) [Amlodipine besylate, reference compound], the AC50 [2, 13] is reported as > 92 µM, the AC50 at 24 h (in vitro [6]) is reported as 2.15 µM and the AC50 [5, 14] is reported as 4.56 µM.

For `O=C(CO)[C@@H](O)[C@H](O)[C@@H](O)C(=O)O` [Calcium 5-ketogluconate], the CC50 at 24 h (in vitro [1]) was > 50 µM, the “modl_tp (top asymptote for the winning model)” value ([2]; Table S2, aeid 803) was 2.81 percent_activity and the “resp_max (maximum response value)” value ([2]; Table S2, aeid 803, per sample) was 2.734 percent_activity. For the same compound, the hitc ([2]; Table S2, aeid 803, tcpl hit call) was 0, the hitc_modified ([2]; Table S2, aeid 803, final hitc after manual review) was 0 and the AC50 ([2]; Table S2, aeid 803, inactive set to 1000, read-out: AC50 (uM) modified) was > 50 µM. The “resp_max (maximum response value)” value (GH3-TRE-Luc cell line [7]; Table S2, aeid 805) was 18.832 percent_activity, the AC50 (GH3-TRE-Luc cell line [4]) was > 50 µM and the hitc (GH3-TRE-Luc cell line [4]) was 0. It also gave a hitc_modified (GH3-TRE-Luc cell line [4]) of 0, a hitc ([5]; Table S2, aeid 804) of 0 and a hitc_modified ([5]; Table S2, aeid 804) of 0. The “resp_max (maximum response value)” value ([5]; Table S2, aeid 804) was 6.735 percent_activity and the AC50 ([5]; Table S2, aeid 804, inactive set to 1000, read-out: AC50 (uM) modified) was > 50 µM.

For `CN(C)S(=O)(=O)N(SC(F)(Cl)Cl)c1ccccc1` [Dichlofluanid], the CC50 at 24 h (in vitro [1]) was 1.43 µM, the “cytotoxicity in GH3 viability assay” value (GH3-TRE-Luc cell line [4]) was “loss of viability at virtually identical concentrations” and the “activity in GH3-TRE antagonist mode assay” value [5] was “active”.

With `CNCC[C@H](Oc1cccc2ccccc12)c1cccs1` [Duloxetine hydrochloride, reference compound] the AC50 ([2]; read-out: GH3-TRE-Ag AC50) was > 92 µM, the AC50 at 24 h (in vitro [6]) was 5.69 µM and the AC50 ([5]; read-out: GH3-TRE-Antag AC50, antagonist mode, 1 nM T3) was 6.22 µM.

For `NCC(=O)CCC(=O)O` [Aminolevulinic acid hydrochloride], the CC50 at 24 h (in vitro [1]) was > 50 µM, the “EMax (% of Control) gh3-tre-agonist-followup-1_agonist” value [8] was 43.5 % of Control and the GH3-TRE-Ag-Followup hitc ([8]; hit call from tcpl) was 1. The AC50 ([8]; read-out: GH3-TRE-Ag-Followup AC50) was 22.5 µM, the AC50 ([9]; agonist, read-out: TRa-coa AC50) was > 92 µM and the TRa-coa hitc ([9]; hit call from tcpl, agonist) was 0. The Emax ([9]; read-out: EMax (% of Control) tra-coa-agonist-followup-1) was 1.1%, the “EMax (% of Control) gh3-tre-agonist” value [2] was 29.9 % of Control and the “GH3-TRE-Ag AC50 hitc” value ([2]; hit call from tcpl) was 1. The tr-followup-rxr-bla-agonist-1 hitc (human RXRα; hit call from tcpl) was 0, the Emax (human RXRα; read-out: EMax (% of Control) tr-followup-rxr-bla-agonist-1) was 13% and the AC50 (human RXRα; read-out: tr-followup-rxr-bla-agonist-1 AC50) was > 92 µM. The AC50 (GH3-TRE-Luc cell line [7]; Rattus norvegicus, read-out: TR_LUC_GH3_Antagonist_viability AC50 (uM)) was > 92 µM, the “Categorization Code” value [10] was “FP” and the “GLOBAL CYTOTOXICITY cytotox.median” value [3] was >92. The “GLOBAL CYTOTOXICITY cytotox.number_Active” value [3] was 0, the AC50 ([11]; agonist, read-out: TRb-bla AC50) was > 92 µM and the TRb-bla hitc ([11]; hit call from tcpl, agonist) was 0. For the same compound, the Emax ([11]; read-out: EMax (% of Control) trb-bla-agonist-followup-1) was 12.7%, the TR_LUC_GH3_Antagonist_viability hitc (GH3-TRE-Luc cell line [4]; rat, 24 h) was 0 and the AC50 ([12]; agonist, read-out: TRb-coa AC50) was > 92 µM. The TRb-coa hitc ([12]; hit call from tcpl, agonist) was 0 and the Emax ([12]; read-out: EMax (% of Control) trb-coa-agonist-followup-1) was 3.6%.

In the case of `COC(=O)C1=C(C)NC(C)=C(C(=O)OCCN2CCN(C(c3ccccc3)c3ccccc3)CC2)C1c1cccc([N+](=O)[O-])c1` (centres unmarked) [Manidipine dihydrochloride], the CC50 at 24 h (in vitro [1]) is reported as 9.06 µM, the AC50 [2, 13] is reported as > 92 µM and the AC50 [3] is reported as 18.6 µM. For the same compound, the “Active in global cytotoxicity assays (%)” value [3] was 28.8%, the AC50 (GH3-TRE-Luc cell line [4]) was 9.06 µM and the AC50 [5, 14] was 7.4 µM.

In the case of `CCc1cc(OC)c(C[C@@H](C)N)cc1OC` [(-)-2,5-Dimethoxy-4-ethylamphetamine hydrochloride], the “resp_max GH3-TRE-Via” value (GH3-TRE-Luc cell line [7]; Table S8) is reported as 62.2 and the “resp_max GH3-TRE-Antag” value ([5]; Table S8) is reported as 85.7.
